Patent US5545669A, “Anti-inflammatory compounds” (priority 1994, dated 1996)

Experiments:
Assay type in all cases: cell-based
[1] = test system: PGE2 release by human monocytes; assay: Assay (f): stimulated eicosanoid release by human monocytes, Prostaglandin E2; conditions: Monocyte, 0.25 h, A23187 1 μM, 15 min
Experimental: (§1) Human Monocyte Isolation. Leukocyte-rich leukopaks obtained from Biological Specialties (Lansdale, Pa.) were collected from male volunteers who were not taking antiinflammatory drugs. Leukopaks were centrifuged (90×g for 15 min) twice to remove the platelet-rich plasma. The cell pellet was washed by centrifugation and resuspended in HBSS without Ca^2+ or Mg^2+. Histopaque 1077 was layered under the cell suspension and centrifuged at 400×g for 30 min to obtain the buffy coat. The interfacial buffy coat, containing monocytes and lymphocytes, was removed and saved. The buffy coat was washed twice with HBSS Without Ca^2+ or Mg^2+ by centrifugation. The cell pellet (4-6×10^8 cells/30 mls) was resuspended in iso-osmotic media (RPMI-1640, 10% heat inactivated fetal bovine serum (FBS), 0.2 mM L-glutamine, 2.5 mM HEPES) and layered over an equal volume of 46% Percol mixture (10X PBS/Percol; 9.25/0.75) and 54% iso-osmotic media and centrifuged for 30 min at 1000×g (Marshall and Roshak, Biochem. Cell Biol. 71: 331-339, 1993). The monocyte population located at the interface of the Percoll gradient was removed and washed twice in HBSS without Ca^2+ or Mg^2+.
(§2) Measurement of Stimuli-Induced Eicosanoid Release Monocytes (5×10^6 /ml) were incubated as a suspension in serum-free RPMI-1640 medium containing the vehicle DMSO (<1%) or drug for 30 min at 27° C. after which vehicle or stimuli was added for the indicated time. The stimulating agent is solubilized in DMSO and appropriate vehicle controls were included in all experiments. The amount of stimuli was chosen from the linear portion of a concentration versus product curve usually representing 60-80% maximal stimulation over the indicated incubation time at 37° C. (A23187, 1 μM,(15 min). The reaction was terminated by reduction of pH through addition of citric acid and centrifugation (10 min, 400×g, 4° C.). Cell viability was monitored before and after experiments using trypan blue exclusion. The cell-free media was decanted and stored at -70° C. until analyzed. Prostaglandin E2 and LTC4 were directly measured in cell-free media using enzyme immunoassay (EIA) kits purchased from Caymen Chemical Co. (Ann Arbor, Mich.). Sample or standard dilutions were made with appropriate media and analyzed in triplicate. Results were obtained by extrapolation from a standard curve prepared in the media and expressed as pg or ng/ml of sample.

[2] = test system: mouse bone marrow-derived mast cells; assay: Assay (e): arachidonate content of cellular phospholipids; conditions: 24-48 hours in culture
Experimental: The following is the method for assessing the ability of a compound to alter arachidonate content of cellular phospholipids, which can be generalized for any desired cell. Specifically, mouse bone marrow-derived mast cells are removed from culture and provided with exogenous [^3 H]arachidonic acid for 30 minutes. The labeled arachidonic acid which had not been incorporated into the cells is then removed by washing the cells 2 times with an albumin-containing buffer. At that point, the cells are treated with various concentrations of CoA-IT inhibitors and then placed back in culture for 24-48 hours. The phospholipids are extracted by the method of Bligh and Dyer [Can. J. Biochem. Physiol. (1959) 37,911-917] and phospholipids separated by normal phase HPLC by the method of Chilton [Methods Enzymol. (1990)187, 157-166]. The radioactive and mole quantities of arachidonate in complex lipids are determined. At this point, cellular lipid extracts are treated with KOH (0.5M) to remove fatty acids from complex lipids (phospholipids) and the quantities of arachidonate in these extracts can then be determined by various methods, including gas chromatography and mass spectrometry (Chilton [Methods Enzymol. (1990)187, 157-166]).

[3] = test system: LTC4 release by human monocytes; assay: Assay (f): stimulated eicosanoid release by human monocytes, LTC4; conditions: Monocyte, 0.25 h, A23187 1 μM, 15 min
Experimental: as §1, §2

O=C(O)c1ccccc1Oc1ccc(C(F)(F)F)cc1NS(=O)(=O)c1cc(C(F)(F)F)cc(C(F)(F)F)c1 [Example 1, 2-[2-[3,5-Bis(trifluoromethyl)phenylsulfonamido]-4-trifluoromethylphenoxy]benzoic acid]
IC50 [1]: > 30000 nM | decreasing the arachidonic content [2]: positive activity | IC50 [3]: 300 nM
